Experiments:
SETVI [1] = experiment: Pre-emergence action against SETVI; format: in vivo, Setaria viridis; conditions: pre-emergence, dosage 320 g/ha, scored visually after 3 weeks vs untreated controls
Summary of the method: (§1)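 Seeds sown in sandy loam in wood-fiber pots and covered with soil. Greenhouse growth; visual damage scored after 3 weeks versus untreated controls (100% = dead, 0% = like control).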

VIOTR [2] = experiment: Pre-emergence action against VIOTR; format: in vivo, Viola tricolor; conditions: Dosage 320 g/ha, pre-emergence
Summary of the method: as §1

ABUTH [3] = experiment: Pre-emergence action against ABUTH; format: in vivo, Abutilon theophrasti; conditions: pre-emergence, dosage 320 g/ha, scored visually after 3 weeks vs untreated controls
Summary of the method: as §1

VIOTR [4] = experiment: Post-emergence action against VIOTR; format: in vivo, Viola tricolor; conditions: post-emergence, dosage 80 g/ha
Summary of the method: (§2)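 Post-emergence foliar spray on greenhouse plants at the one-leaf stage, using wettable-powder or emulsion-concentrate formulations in water (600 to […], plus 0.2% wetting agent). Damage scored by eye roughly 3 weeks later against untreated plants: 0% = like control, 100% = dead.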

MATIN [5] = experiment: Post-emergence action against MATIN; format: in vivo, Matricaria inodora; conditions: post-emergence, dosage 80 g/ha, visual assessment about 3 weeks after treatment vs untreated controls
Summary of the method: as §2

ALOMY [6] = experiment: Pre-emergence action against ALOMY; format: in vivo, Alopecurus myosuroides; conditions: dosage 320 g/ha, pre-emergence, scored visually after 3 weeks vs untreated controls, 100% = plants have died, 0% = like control plants
Summary of the method: as §1

ABUTH [7] = experiment: Post-emergence action against ABUTH; format: in vivo, Abutilon theophrasti; conditions: post-emergence, dosage 80 g/ha, visual assessment about 3 weeks after treatment vs untreated controls
Summary of the method: as §2

ALOMY [8] = experiment: Post-emergence action against ALOMY; format: in vivo, Alopecurus myosuroides; conditions: Dosage 80 g/ha, post-emergence
Description: (§3) Seeds of monocotyledonous and dicotyledonous weed and crop plants are laid out in sandy loam soil in wood-fiber pots, covered with soil and cultivated in a greenhouse under good growth conditions. 2 to 3 weeks after sowing, the test plants are treated at the one-leaf stage. The compounds of the invention, formulated in the form of wettable powders (WP) or as emulsion concentrates (EC), are then sprayed onto the green parts of the plants in the form of an aqueous suspension or emulsion at a water application rate equating to […], with addition of 0.2% wetting agent. After the test plants have been left to stand in the greenhouse under optimal growth conditions for about 3 weeks, the action of the preparations is assessed visually in comparison to untreated controls (herbicidal action in percent (%): 100% activity=the plants have died, 0% activity=like control plants). […] At the same time, inventive compounds leave Gramineae crops such as barley, wheat, rye, millet/Sorghum, corn or rice virtually undamaged when applied post-emergence, even at high active ingredient dosages. In addition, some substances are also harmless to dicotyledonous crops such as soya, cotton, oilseed rape, sugar beet or potatoes. Some of the compounds according to the invention have high selectivity and are therefore suitable for controlling unwanted vegetation in agricultural crops by the post-emergence method. The data of Tables B18 to B34 below illustrate, in an exemplary manner, the […] herbicidal action of the compounds according to the invention, the herbicidal activity being stated in percent.

ECHCG [9] = experiment: Pre-emergence action against ECHCG; format: in vivo, Echinochloa crus-galli; conditions: pre-emergence, dosage 320 g/ha, scored visually after 3 weeks vs untreated controls
Summary of the method: as §1

SETVI [10] = experiment: Post-emergence action against SETVI; format: in vivo, Setaria viridis; conditions: post-emergence, dosage 80 g/ha, visual assessment about 3 weeks after treatment vs untreated controls
Summary of the method: as §2

MATIN [11] = experiment: Pre-emergence action against MATIN; format: in vivo, Matricaria inodora; conditions: Dosage 320 g/ha, pre-emergence
Summary of the method: as §1

VERPE [12] = experiment: Post-emergence action against VERPE; format: in vivo, Veronica persica; conditions: dosage 80 g/ha
Summary of the method: as §2

AMARE [13] = experiment: Pre-emergence action against AMARE; format: in vivo, Amaranthus retroflexus; conditions: pre-emergence, dosage 320 g/ha, scored visually after 3 weeks vs untreated controls
Summary of the method: as §1

STEME [14] = experiment: Post-emergence action against STEME; format: in vivo, Stellaria media; conditions: post-emergence, dosage 80 g/ha
Summary of the method: as §2

VERPE [15] = experiment: Pre-emergence action against VERPE; format: in vivo, Veronica persica; conditions: Dosage 320 g/ha, pre-emergence
Summary of the method: as §1

STEME [16] = experiment: Pre-emergence action against STEME; format: in vivo, Stellaria media; conditions: Dosage 320 g/ha, pre-emergence
Summary of the method: as §1

PHBPU [17] = experiment: Post-emergence action against PHBPU; format: in vivo, Pharbitis purpurea; conditions: post-emergence, dosage 80 g/ha
Summary of the method: as §2

AVEFA [18] = experiment: Pre-emergence action against AVEFA; format: in vivo, Avena fatua; conditions: dosage 320 g/ha, scored visually after 3 weeks vs untreated controls
Summary of the method: as §1

AVEFA [19] = experiment: Post-emergence action against AVEFA; format: in vivo, Avena fatua; conditions: post-emergence, dosage 80 g/ha, visual assessment about 3 weeks after treatment vs untreated controls
Description: as §3

ECHCG [20] = experiment: Post-emergence action against ECHCG; format: in vivo, Echinochloa crus-galli; conditions: post-emergence, dosage 80 g/ha, visual assessment about 3 weeks after treatment vs untreated controls
Summary of the method: as §2

AMARE [21] = experiment: Post-emergence action against AMARE; format: in vivo, Amaranthus retroflexus; conditions: post-emergence, dosage 80 g/ha, visual assessment about 3 weeks after treatment vs untreated controls
Summary of the method: as §2

PHBPU [22] = experiment: Pre-emergence action against PHBPU; format: in vivo, Pharbitis purpurea; conditions: Dosage 320 g/ha, pre-emergence
Summary of the method: as §1

CYPES [23] = experiment: Post-emergence action against CYPES; format: in vivo, Cyperus esculentus; conditions: post-emergence, dosage 80 g/ha, visual assessment about 3 weeks after treatment vs untreated controls
Summary of the method: as §2

CYPES [24] = experiment: Pre-emergence action against CYPES; format: in vivo, Cyperus esculentus; conditions: pre-emergence, dosage 320 g/ha, scored visually after 3 weeks vs untreated controls
Summary of the method: as §1

POLCO = experiment: Pre-emergence action against POLCO; format: in vivo, Polygonum convolvulus; conditions: Dosage 320 g/ha, pre-emergence
Summary of the method: as §1

Structure (SMILES): CSc1ccc(C(=O)Nc2nnnn2C)c(Cl)c1C(=O)C1CC1 [1-123]
- pest or weed control at 320 g/ha (SETVI [1]; Setaria viridis, 504 h, read-out: SETVI (Table B8, pre-emergence herbicidal activity)): 100%
- pest or weed control at 320 g/ha (VIOTR [2]; Viola tricolor, 504 h): 100%
- pest or weed control at 320 g/ha (ABUTH [3]; Abutilon theophrasti, 504 h, read-out: Pre-emergence action against ABUTH (herbicidal activity)): 90%
- pest or weed control at 80 g/ha (VIOTR [4]; Viola tricolor, 504 h): 100%
- pest or weed control at 80 g/ha (MATIN [5]; Tripleurospermum inodorum, 504 h, read-out: Post-emergence action against MATIN (herbicidal action in percent)): 100%
- pest or weed control at 320 g/ha (ALOMY [6]; Alopecurus myosuroides, 504 h, read-out: Pre-emergence action against ALOMY (herbicidal activity in percent)): 90%
- pest or weed control at 80 g/ha (ABUTH [7]; Abutilon theophrasti, 504 h, read-out: Post-emergence action against ABUTH (herbicidal action in percent)): 100%
- pest or weed control at 80 g/ha (ALOMY [8]; Alopecurus myosuroides, 504 h): 80%
- pest or weed control at 320 g/ha (ECHCG [9]; Echinochloa crus-galli, 504 h, read-out: Pre-emergence action against ECHCG (herbicidal activity)): 100%
- pest or weed control at 80 g/ha (SETVI [10]; Setaria viridis, 504 h, read-out: Post-emergence action against SETVI (herbicidal action in percent)): 100%
- pest or weed control at 320 g/ha (MATIN [11]; Tripleurospermum inodorum, 504 h): 100%
- pest or weed control at 80 g/ha (VERPE [12]; Veronica persica, 504 h): 100%
- pest or weed control at 320 g/ha (AMARE [13]; Amaranthus retroflexus, 504 h, read-out: Pre-emergence action against AMARE (herbicidal activity)): 100%
- pest or weed control at 80 g/ha (STEME [14]; Stellaria media, 504 h): 100%
- pest or weed control at 320 g/ha (VERPE [15]; Veronica persica, 504 h): 100%
- pest or weed control at 320 g/ha (STEME [16]; Stellaria media, 504 h): 90%
- pest or weed control at 80 g/ha (PHBPU [17]; Ipomoea purpurea, 504 h): 90%
- pest or weed control at 320 g/ha (AVEFA [18]; Avena fatua, 504 h, read-out: Pre-emergence action against AVEFA (herbicidal activity)): 80%
- pest or weed control at 80 g/ha (AVEFA [19]; Avena fatua, 504 h, read-out: Post-emergence action against AVEFA (herbicidal action in percent)): 100%
- pest or weed control at 80 g/ha (ECHCG [20]; Echinochloa crus-galli, 504 h, read-out: Post-emergence action against ECHCG (herbicidal action in percent)): 100%
- pest or weed control at 80 g/ha (AMARE [21]; Amaranthus retroflexus, 504 h, read-out: Post-emergence action against AMARE (herbicidal action in percent)): 100%

Structure (SMILES): CCCn1nnnc1NC(=O)c1ccc(S(C)(=O)=O)c(C(=O)C2CC2)c1Cl [3-129]
- SETVI (Table B8, pre-emergence herbicidal activity) (SETVI [1]): 100%
- Pre-emergence action against VIOTR (VIOTR [2]): 100%
- Pre-emergence action against ABUTH (herbicidal activity) (ABUTH [3]): 100%
- Post-emergence action against VIOTR (VIOTR [4]): 100
- Post-emergence action against MATIN (herbicidal action in percent) (MATIN [5]): 100%
- Pre-emergence action against ALOMY (herbicidal activity in percent) (ALOMY [6]): 90%
- Post-emergence action against ABUTH (herbicidal action in percent) (ABUTH [7]): 90%
- Post-emergence action against ALOMY (ALOMY [8]): 90%
- Pre-emergence action against ECHCG (herbicidal activity) (ECHCG [9]): 100%
- Pre-emergence action against PHBPU (PHBPU [22]): 90%
- Post-emergence action against SETVI (herbicidal action in percent) (SETVI [10]): 100%
- Pre-emergence action against MATIN (MATIN [11]): 100%
- Post-emergence action against VERPE (VERPE [12]): 100
- Pre-emergence action against AMARE (herbicidal activity) (AMARE [13]): 100%
- Post-emergence action against STEME (STEME [14]): 100
- Post-emergence action against CYPES (herbicidal action in percent) (CYPES [23]): 80%
- Pre-emergence action against VERPE (VERPE [15]): 100%
- Pre-emergence action against STEME (STEME [16]): 100%
- Post-emergence action against PHBPU (PHBPU [17]): 100
- Pre-emergence action against AVEFA (herbicidal activity) (AVEFA [18]): 100%
- Post-emergence action against AVEFA (herbicidal action in percent) (AVEFA [19]): 90%
- Pre-emergence action against CYPES (herbicidal activity) (CYPES [24]): 90%
- Post-emergence action against ECHCG (herbicidal action in percent) (ECHCG [20]): 100%
- Post-emergence action against AMARE (herbicidal action in percent) (AMARE [21]): 90%

Structure (SMILES): CCCn1nnnc1NC(=O)c1ccc(C(F)(F)F)c(C(=O)C2CC2)c1Cl [3-141]
- SETVI (Table B8, pre-emergence herbicidal activity) (SETVI [1]): 100%
- Pre-emergence action against VIOTR (VIOTR [2]): 100%
- Pre-emergence action against ABUTH (herbicidal activity) (ABUTH [3]): 100%
- Post-emergence action against VIOTR (VIOTR [4]): 100
- Post-emergence action against MATIN (herbicidal action in percent) (MATIN [5]): 100%
- Pre-emergence action against ALOMY (herbicidal activity in percent) (ALOMY [6]): 90%
- Pre-emergence action against POLCO (POLCO): 90%
- Post-emergence action against ABUTH (herbicidal action in percent) (ABUTH [7]): 80%
- Post-emergence action against ALOMY (ALOMY [8]): 80%
- Pre-emergence action against ECHCG (herbicidal activity) (ECHCG [9]): 100%
- Post-emergence action against SETVI (herbicidal action in percent) (SETVI [10]): 100%
- Pre-emergence action against MATIN (MATIN [11]): 100%
- Post-emergence action against VERPE (VERPE [12]): 100
- Pre-emergence action against AMARE (herbicidal activity) (AMARE [13]): 100%
- Post-emergence action against STEME (STEME [14]): 100
- Post-emergence action against CYPES (herbicidal action in percent) (CYPES [23]): 80%
- Pre-emergence action against VERPE (VERPE [15]): 100%
- Pre-emergence action against STEME (STEME [16]): 100%
- Post-emergence action against PHBPU (PHBPU [17]): 100
- Pre-emergence action against AVEFA (herbicidal activity) (AVEFA [18]): 80%
- Post-emergence action against AVEFA (herbicidal action in percent) (AVEFA [19]): 100%
- Post-emergence action against ECHCG (herbicidal action in percent) (ECHCG [20]): 100%
- Post-emergence action against AMARE (herbicidal action in percent) (AMARE [21]): 100%

Source: patent US11051515B2, “3-acyl-benzamides and their use as herbicides” (Bayer Aktiengesellschaft, priority 2017, dated 2021)
